Test results as given in patent publication US11344499B2, “Nanoparticles as delivery vehicles of active ingredients and methods for the production thereof” (CONSIGLIO NAZIONALE DELLE RICERCHE, priority 2017, dated 2022).

Legend:
HT29 cells [1] = experiment: Count of alive cells after treatment; assay type: cell-based, human; settings: HT29, 50 μM of 9-HSA, 24 h
Protocol: Briefly 5.0×10^3 human colon adenocarcinoma cell line HT29 cells were seeded in 200 μl of growth medium in replicate (n=4) in a 48-well culture plate. After 24 h of cell growth, the medium was removed and the cells were incubated with the experimental medium containing KNPs-9HSA (50 μM of 9-HSA) and free 9-HSA. Twenty-four hours after treatment, cells were detached and counted.

HT29 cells [2] = experiment: Cell cycle analysis by flow cytometry (PI); assay type: cell-based, human; settings: HT29, 50 μM of 9-HSA, 24 h
Protocol: Cell cycle analysis was performed as follows: 5.0×10^3 HT29 cells were seeded in 200 μl of growth medium in a 48-well culture plate. After 24 h of cell growth, the medium was removed and the cells were incubated with the experimental medium containing KER-NPs-9HSA (50 μM of 9-HSA) and free 9-HSA. Twenty-four hours after treatment, cells were trypsinized, washed twice with PBS and then centrifuged. Cells pellet was re-suspended in 0.01% Nonidet-P40 (Sigma-Aldrich), 10 μg/mL of RNasi (Sigma-Aldrich), 0.1% of sodium citrate (Sigma-Aldrich), 50 μg/mL di propidium iodide (PI) (Sigma-Aldrich), and kept in the dark for 30 min at room temperature. Florescence was detected by a flow cytometry (Beckman Coulter Epics XL-MCL), while cell cycle analysis was performed with Cell Cycle program (MODEFIT 5.0).

CCCCCCCCCC(O)CCCCCCCC(=O)O (centres unmarked) [Entry 9-HSA, 9-hydroxystearic acid]
tumor cell proliferation (number of alive cells) (HT29 cells [1]): inhibit tumor cell proliferation
cell cycle effect (HT29 cells [2]): blocks the cell cycle in the G0/G1 phase
